Measurements: patent publication US9580411B2, “Substituted sulfonamide compounds” (Hoffmann-La Roche Inc., priority 2012, dated 2017)

Each compound was assayed against hTRPA1 (Homo sapiens (Human), UniProt O75762) (assay: Dose response calcium flux assay (FLIPR), ChanTest hTRPA1-CHO stably transfected cell line). Details: CHO-K1 Tet-On human TRPA1 cells, cinnamaldehyde agonist (final 100 uM).
Format: cell-based
Method: IC50 Determinations of Exemplified Compounds Dose Response Assay: Chan Test hTRPA1-CHO Stably Transfected Cell Line
CHO-K1 Tet-On_HOMSA_TRPA1_Clone_20
Chinese Hamster Ovary cells, inducible expression
• Ham's F-12 with 10% tetracycline-free FBS • 1× penicillin-streptomycin • 1× glutamax • 0.01 mg/ml Blasticidin • 0.40 mg/ml Zeocin • The cell line doubling rate was ˜15 hours. […] Experiments were run at 24 hours post induction. Plating Conditions CHOK1/TRPA1 Cells: • Harvested cells with 0.025% trypsin/EDTA. • Resuspended cells in growth media without selection antibiotics. • Measured cell density and diluted to 2.4×10^5 cells/ml in media containing 1 ug/ml Doxycycline Plate 25 ul/well into 384 well black/clear tissue culture-treated plates. • Incubated overnight at 37° C. Calcium Flux Assay: Day of Assay: Reagents: • Replacement Buffer: Hank's Balanced Salt Solution, 20 mM HEPES along with 0.005% BSA and 2× Probenecid • Dye Loading Buffer: Cal-3 NW Calcium dye was prepared by dissolving the contents of one vial with […] Hank's Balanced Salt Solution containing 20 mM HEPES. • Control compounds for CHOK1/TRPA1 cells: AP-18, stock 10 mM, prepare 3.5× compound dilution in a Compound Buffer (HBSS/20 mM HEPES/0.005% BSA)—final concentration 10 uM. • Preparation of Cinnamaldehyde (agonist addition): FW=132.16 • Specific gravity=1.046 gm/cc • 1.32 gm/1.046 gm/cc=1.26 ml of stock • Add 1.74 ml DMSO=3.3 M stock • Working solution 4.5× (final 100 uM in Compound Buffer: HBSS/20 mM HEPES/0.005% BSA) • Compounds dilutions were prepared from 5 or 10 mM stock (100% DMSO): • Adjustments of volumes and concentrations were made at time of titration to reflect desired final assay concentrations. • Compounds were tested at either 20 μM three folds dilution 11 steps out or 30 μM two folds dilution 11 steps out. • 3 μl of diluted compound were transferred into Weidmann 384-well plate in duplicates side-by-side. • Compound plates were resuspended with 100 ul of HBSS/20 mM HEPES/0.005% BSA buffer (Compound Buffer): • column 1A-H: buffer/DMSO (bk) • column 2A-H: AP-18 (control antagonist for CHOK1 TRPA1 cells) • column 1I-P: ATP (control for CHOK1 teton cells) • column 2 I-P: 2APB (control antagonist for CHOK1/TRPM8 cells). Growth media was removed from the cell plates (20 ul) and 20 ul of the Replacement Buffer was added followed by addition of 25 ul of diluted dye. All three steps were performed using a Plate Washer BioTek 407. The plates were then incubated for 30′ at RT.
After incubation, both the cell and compound plates were brought to the FLIPR and 20 ul of the diluted compounds/antagonist/bk were transferred to the cell plates by the FLIPR. Plates were then incubated for 30′ at room temperature. After 30′ incubation, plates were returned to the FLIPR and 20 ul of 4.5× Cinnamaldehyde was added to the cell plates. During the compound addition as well as agonist addition, fluorescence readings were taken simultaneously from all 384 wells of the cell plate every 1.5 seconds. Five readings were taken to establish a stable baseline, then 20 ul of sample was rapidly (30 ul/sec) and simultaneously added to each well of the cell plate. The fluorescence was continuously monitored before, during and after sample/agonist addition for a total elapsed time of 100 seconds (compound addition) and 120 seconds (agonist addition). Responses (increase in peak fluorescence) in each well following agonist addition was determined. The initial fluorescence reading from each well, prior to ligand stimulation, was used a zero baseline value for the data from that well.

hTRPA1, sequence (O75762 whole entry): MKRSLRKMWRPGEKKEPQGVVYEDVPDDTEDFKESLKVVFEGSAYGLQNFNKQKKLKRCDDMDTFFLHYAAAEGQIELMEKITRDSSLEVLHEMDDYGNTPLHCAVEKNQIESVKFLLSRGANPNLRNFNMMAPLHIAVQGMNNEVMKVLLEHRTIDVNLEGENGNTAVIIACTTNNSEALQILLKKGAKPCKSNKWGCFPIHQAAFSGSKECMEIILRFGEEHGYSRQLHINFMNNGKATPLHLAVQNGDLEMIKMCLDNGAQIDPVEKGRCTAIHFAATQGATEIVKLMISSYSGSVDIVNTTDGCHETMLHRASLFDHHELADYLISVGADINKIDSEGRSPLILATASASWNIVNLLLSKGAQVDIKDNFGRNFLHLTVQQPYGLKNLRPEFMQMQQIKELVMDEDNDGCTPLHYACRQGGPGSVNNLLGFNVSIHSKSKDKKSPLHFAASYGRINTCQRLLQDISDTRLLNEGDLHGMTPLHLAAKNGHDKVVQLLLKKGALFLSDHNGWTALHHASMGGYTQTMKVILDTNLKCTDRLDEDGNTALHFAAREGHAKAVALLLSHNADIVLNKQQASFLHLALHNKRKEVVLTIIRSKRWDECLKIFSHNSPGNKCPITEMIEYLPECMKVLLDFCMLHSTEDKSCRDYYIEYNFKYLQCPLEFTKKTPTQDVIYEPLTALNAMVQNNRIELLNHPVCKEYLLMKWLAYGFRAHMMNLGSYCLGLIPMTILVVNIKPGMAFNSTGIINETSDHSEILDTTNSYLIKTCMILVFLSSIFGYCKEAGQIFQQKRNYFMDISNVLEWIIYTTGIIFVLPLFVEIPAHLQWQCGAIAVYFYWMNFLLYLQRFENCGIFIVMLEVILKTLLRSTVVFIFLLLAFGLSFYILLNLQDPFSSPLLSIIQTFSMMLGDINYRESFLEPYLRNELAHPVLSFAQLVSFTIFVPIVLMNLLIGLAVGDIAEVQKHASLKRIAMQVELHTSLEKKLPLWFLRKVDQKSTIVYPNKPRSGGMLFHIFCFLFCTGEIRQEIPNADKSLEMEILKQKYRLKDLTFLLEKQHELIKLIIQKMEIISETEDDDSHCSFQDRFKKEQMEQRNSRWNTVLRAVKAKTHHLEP

Row | IC50 [nM] | SMILES
1 | 81 | CN(CC(=O)NCc1cccc(-c2ccc(C(F)(F)F)cc2)c1)S(=O)(=O)c1ccc(F)cc1 [Example 1, 2-[(4-Fluoro-benzenesulfonyl)-methyl-amino]-N-(4′-trifluoromethyl-biphenyl-3-ylmethyl)-acetamide]
2 | 35 | C[C@@H](C(=O)NCc1cccc(-c2ccc(C(F)(F)F)cc2)c1)N(C)S(=O)(=O)c1ccc(F)cc1 [Example 2, (S)-2-[(4-Fluoro-benzenesulfonyl)-methyl-amino]-N-(4′-trifluoromethyl-biphenyl-3-ylmethyl)-propionamide]
3 | 1080 | O=C(CNS(=O)(=O)c1ccc(F)cc1)NCc1cccc(-c2ccc(C(F)(F)F)cc2)c1 [Example 3, 2-(4-Fluoro-benzenesulfonylamino)-N-(4′-trifluoromethyl-biphenyl-3-ylmethyl)-acetamide]
4 | 1120 | C[C@H](C(=O)NCc1cccc(-c2ccc(C(F)(F)F)cc2)c1)N(C)S(=O)(=O)c1ccc(F)cc1 [Example 4, (R)-2-[(4-Fluoro-benzenesulfonyl)-methyl-amino]-N-(4′-trifluoromethyl-biphenyl-3-ylmethyl)-propionamide]
5 | 260 | O=C(CN(CC(F)(F)F)S(=O)(=O)c1ccc(F)cc1)NCc1cccc(-c2ccc(C(F)(F)F)cc2)c1 [Example 13, 2-[(4-fluoro-benzenesulfonyl)-(2,2,2-trifluoro-ethyl)-amino]-N-(4′-trifluoromethyl-biphenyl-3-ylmethyl)-acetamide]
6 | 98 | O=C(CN(CCO)S(=O)(=O)c1ccc(F)cc1)NCc1cccc(-c2ccc(C(F)(F)F)cc2)c1 [Example 19, 2-[(4-Fluoro-benzenesulfonyl)-(2-hydroxy-ethyl)-amino]-N-(4′-trifluoromethyl-biphenyl-3-ylmethyl)-acetamide]
7 | 160 | CC(O)CN(CC(=O)NCc1cccc(-c2ccc(C(F)(F)F)cc2)c1)S(=O)(=O)c1ccc(F)cc1 (stereo not drawn) [Example 20, 2-[(4-Fluoro-benzenesulfonyl)-(2-hydroxy-propyl)-amino]-N-(4′-trifluoromethyl-biphenyl-3-ylmethyl)-acetamide]
8 | 190 | O=C(CN(C1CC1)S(=O)(=O)c1ccc(F)cc1)NCc1cccc(-c2ccc(C(F)(F)F)cc2)c1 [Example 22, 2-[Cyclopropyl-(4-fluoro-benzenesulfonyl)-amino]-N-(4′-trifluoromethyl-biphenyl-3-ylmethyl)-acetamide]
9 | 29 | CCN(CC(=O)NCc1cccc(-c2ccc(C(F)(F)F)cc2)c1)S(=O)(=O)c1ccc(F)cc1 [Example 23, 2-[Ethyl-(4-fluoro-benzenesulfonyl)-amino]-N-(4′-trifluoromethyl-biphenyl-3-ylmethyl)-acetamide]
10 | 1030 | O=C(NCc1cccc(-c2ccc(C(F)(F)F)cc2)c1)C(NS(=O)(=O)c1ccc(F)cc1)C1CC1 (stereo not drawn) [Example 24, 2-cyclopropyl-2-(4-fluoro-benzenesulfonylamino)-N-(4′-trifluoromethyl-biphenyl-3-ylmethyl)-acetamide]

The remaining lines, values behind:

Row | SMILES | IC50 [nM]
11 | CC(C)[C@@H](C(=O)NCc1cccc(-c2ccc(C(F)(F)F)cc2)c1)N(C)S(=O)(=O)c1ccc(F)cc1 [Example 5, (S)-2-[(4-Fluoro-benzenesulfonyl)-methyl-amino]-3-methyl-N-(4′-trifluoromethyl-biphenyl-3-ylmethyl)-butyramide] | 1620
12 | CC(C)[C@H](C(=O)NCc1cccc(-c2ccc(C(F)(F)F)cc2)c1)N(C)S(=O)(=O)c1ccc(F)cc1 [Example 6, (R)-2-[(4-Fluoro-benzenesulfonyl)-methyl-amino]-3-methyl-N-(4′-trifluoromethyl-biphenyl-3-ylmethyl)-butyramide] | 1110
13 | CN(C(C)(C)C(=O)NCc1cccc(-c2ccc(C(F)(F)F)cc2)c1)S(=O)(=O)c1ccc(F)cc1 [Example 7, 2-[(4-Fluoro-benzenesulfonyl)-methyl-amino]-2-methyl-N-(4′-trifluoromethyl-biphenyl-3-ylmethyl)-propionamide] | 800
14 | CN(CC(=O)NCc1ccc(F)c(-c2ccc(C(F)(F)F)cc2)c1)S(=O)(=O)c1ccc(F)cc1 [Example 8, 2-[(4-Fluoro-benzenesulfonyl)-methyl-amino]-N-(6-fluoro-4′-trifluoromethyl-biphenyl-3-ylmethyl)-acetamide] | 150
15 | CN(CC(=O)NCc1cccc(-c2ccc(C(F)(F)F)cc2)c1F)S(=O)(=O)c1ccc(F)cc1 [Example 9, 2-[(4-Fluoro-benzenesulfonyl)-methyl-amino]-N-(2-fluoro-4′-trifluoromethyl-biphenyl-3-ylmethyl)-acetamide] | 1500
16 | CN(CC(=O)NCc1ccc(-c2ccc(C(F)(F)F)cc2)cc1)S(=O)(=O)c1ccc(F)cc1 [Example 10, 2-[(4-Fluoro-benzenesulfonyl)-methyl-amino]-N-(4′-trifluoromethyl-biphenyl-4-ylmethyl)-acetamide] | 4800
17 | CN(CC(=O)NCc1cc(F)cc(-c2ccc(C(F)(F)F)cc2)c1)S(=O)(=O)c1ccc(F)cc1 [Example 11, 2-[(4-Fluoro-benzenesulfonyl)-methyl-amino]-N-(5-fluoro-4′-trifluoromethyl-biphenyl-3-ylmethyl)-acetamide] | 130
18 | CN(CC(=O)NCc1cc(-c2ccc(C(F)(F)F)cc2)ccc1F)S(=O)(=O)c1ccc(F)cc1 [Example 12, 2-[(4-Fluoro-benzenesulfonyl)-methyl-amino]-N-(4-fluoro-4′-trifluoromethyl-biphenyl-3-ylmethyl)-acetamide] | 48
19 | CCN(CC(=O)NCc1ccc(F)c(-c2ccc(C(F)(F)F)cc2)c1)S(=O)(=O)c1ccc(F)cc1 [Example 14, 2-[Ethyl-(4-fluoro-benzenesulfonyl)-amino]-N-(6-fluoro-4′-trifluoromethyl-biphenyl-3-ylmethyl)-acetamide] | 37
20 | CCN(CC(=O)NCc1cc(F)cc(-c2ccc(C(F)(F)F)cc2)c1)S(=O)(=O)c1ccc(F)cc1 [Example 15, 2-[Ethyl-(4-fluoro-benzenesulfonyl)-amino]-N-(5-fluoro-4′-trifluoromethyl-biphenyl-3-ylmethyl)-acetamide] | 28
21 | CCN(CC(=O)NCc1cc(-c2ccc(C(F)(F)F)cc2)ccc1F)S(=O)(=O)c1ccc(F)cc1 [Example 16, 2-[Ethyl-(4-fluoro-benzenesulfonyl)-amino]-N-(4-fluoro-4′-trifluoromethyl-biphenyl-3-ylmethyl)-acetamide] | 24
22 | CCN(CC(=O)NCc1ccc(-c2ccc(C(F)(F)F)cc2)cc1)S(=O)(=O)c1ccc(F)cc1 [Example 17, 2-[Ethyl-(4-fluoro-benzenesulfonyl)-amino]-N-(4′-trifluoromethyl-biphenyl-4-ylmethyl)-acetamide] | 4830
23 | CCN(CC(=O)NCc1ccc(-c2cccc(C(F)(F)F)c2)cc1)S(=O)(=O)c1ccc(F)cc1 [Example 18, 2-[Ethyl-(4-fluoro-benzenesulfonyl)-amino]-N-(3′-trifluoromethyl-biphenyl-4-ylmethyl)-acetamide] | 4810
24 | CN(CC(=O)NCc1cc(-c2ccc(C(F)(F)F)cc2)ncn1)S(=O)(=O)c1ccc(F)cc1 [Example 21, 2-[(4-Fluoro-benzenesulfonyl)-methyl-amino]-N-[6-(4-trifluoromethyl-phenyl)-pyrimidin-4-ylmethyl]-acetamide] | 97
